Data from patent US4526989A, “1,4-Bis (substituted-amino)-5,8-dihydroxy-anthraquinones and leuco bases thereof” (priority 1979, dated 1985).
Blank lines part the entries; values can stand above or below the compound they belong to.

Experiments:
[1] = test system: lymphocytic leukemia P388; test: Lymphocytic leukemia P388 test (intraperitoneal administration); assay type: in vivo, DBA/2 mice; conditions: days 1, 5 and 9
Summary of the method: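 DBA/2 mice, single sex, 5-6 per group, inoculated i.p. with 10^6 P388 leukemia cells. Compounds given i.p. at various doses on days 1, 5 and 9; survival followed 30 days, reporting median survival time and treated/control (T/C) survival ratio.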

[2] = test system: lymphocytic leukemia P388; test: Lymphocytic leukemia P388 test (oral drug administration); assay type: in vivo, DBA/2 mice; conditions: for T/C × 100: efficacy ≥125%
Procedure: The animals used are DBA/2 mice all of one sex, weighing a minimum of 17 g. and all within a 3 gram weight range. There are 5 or 6 animals per test group. The tumor transplant is by intraperitoneal injection of 0.1 ml. of dilute ascitic fluid containing 10^6 cells of lymphocytic leukemia P388. The test compounds are administered intraperitoneally on days one, 5 and 9 (relative to tumor inoculation) at various doses. The animals are weighed and survivors are recorded on a regular basis for 30 days. The median survival time and the ratio of survival time for treated (T)/control (C) animals are calculated. […] The results of this test with representative compounds of the present invention appear in Table I. The criterion for efficacy is T/C×100≥125%.
The procedure used is the same as for the previously described test for lymphocytic leukemia P388 except that the test compounds are administered orally at various doses rather than intraperitoneally. The criterion for efficacy is T/C×100≥125%.

[3] = test system: Ridgway Osteogenic Sarcoma; test: Ridgway Osteogenic Sarcoma; assay type: in vivo, AKD2 F1 /J mice; conditions: for % Inhibition Tumor Growth / % Showing 50% Tumor Regression / No. Without Tumors/No. Survivors / Tumor: 7 days after therapy stopped; for Median Survival / T/C: 63 days after therapy stopped
Procedure: The animals used are AKD2 F1 /J mice, all of the same sex, weighing a minimim of 17 g. and all within a three-gram weight range. There are normally 8 animals per test group. The tumor is administered subcutaneously by trocar as five 2-mm. fragments per mouse. The test compounds are administered intraperitoneally every 4 days for a total of 6 inoculations beginning on day 15 (relative to tumor inoculation) at various doses. The animals are weighed and survivors are recorded on a regular basis for 90 days. The regression of tumors is recorded in all test animals.

[4] = test system: melanotic melanoma B16; test: Melanotic Melanoma B16 test; assay type: in vivo, C57BC/6 mice
Summary of the method: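 C57BC/6 mice (10 per group) were implanted i.p. with B16 melanoma homogenate, then dosed i.p. on days 1–9 at various doses.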

[5] = Storage behaviour of solid; assay type: physicochemical

Structure (SMILES): CN(C)CCNc1ccc(NCCN(C)C)c2c1C(=O)c1c(O)ccc(O)c1C2=O [1,4-Bis[(2-dimethylaminoethyl)amino]-5,8-dihydroxyanthraquinone]
Median Survival Time ([1]; 3 mg./kg. i.p.): 19.5 days | Median Survival Time ([1]; 6 mg./kg. i.p.): 21.0 days | Median Survival Time ([1]; 12 mg./kg. i.p.): 23.0 days | Median Survival Time ([1]; 25 mg./kg. i.p.): 20.5 days | Median Survival Time ([1]; 50 mg./kg. i.p.): 25.0 days | response vs control in vivo at 3 mg/kg ([1]; Mus musculus, P388, ip, 3 mg./kg. i.p., efficacy ≥125%, read-out: T/C × 100): 217% | response vs control in vivo at 6 mg/kg ([1]; Mus musculus, P388, ip, 6 mg./kg. i.p., efficacy ≥125%, read-out: T/C × 100): 233% | response vs control in vivo at 12 mg/kg ([1]; Mus musculus, P388, ip, 12 mg./kg. i.p., efficacy ≥125%, read-out: T/C × 100): 256% | response vs control in vivo at 25 mg/kg ([1]; Mus musculus, P388, ip, 25 mg./kg. i.p., efficacy ≥125%, read-out: T/C × 100): 228% | response vs control in vivo at 50 mg/kg ([1]; Mus musculus, P388, ip, 50 mg./kg. i.p., efficacy ≥125%, read-out: T/C × 100): 278% | Median Survival Time ([2]; 3 mg./kg. oral): 15.0 days | T/C × 100 ([2]; 3 mg./kg. oral): 130% | Median Survival Time ([2]; 6 mg./kg. oral): 16.0 days | T/C × 100 ([2]; 6 mg./kg. oral): 139% | Median Survival Time ([2]; 12 mg./kg. oral): 16.0 days | T/C × 100 ([2]; 12 mg./kg. oral): 139% | % Inhibition Tumor Growth ([3]; 6 mg./kg. i.p.): 19% | % Showing 50% Tumor Regression ([3]; 6 mg./kg. i.p.): 0% | No. Without Tumors/No. Survivors ([3]; 6 mg./kg. i.p.): 0/6 | Tumor ([3]; 6 mg./kg. i.p.): 960 (mm.) 2 | Median Survival ([3]; 6 mg./kg. i.p.): 57.5 days | T/C ([3]; 6 mg./kg. i.p.): 129% | % Inhibition Tumor Growth ([3]; 12 mg./kg. i.p.): 61% | % Showing 50% Tumor Regression ([3]; 12 mg./kg. i.p.): 0% | No. Without Tumors/No. Survivors ([3]; 12 mg./kg. i.p.): 0/3 | Tumor ([3]; 12 mg./kg. i.p.): 470 (mm.) 2 | Median Survival ([3]; 12 mg./kg. i.p.): 37 days | T/C ([3]; 12 mg./kg. i.p.): 83% | % Inhibition Tumor Growth ([3]; 25 mg./kg. i.p.): 41% | % Showing 50% Tumor Regression ([3]; 25 mg./kg. i.p.): 0% | No. Without Tumors/No. Survivors ([3]; 25 mg./kg. i.p.): 0/8 | Tumor ([3]; 25 mg./kg. i.p.): 653 (mm.) 2 | Median Survival ([3]; 25 mg./kg. i.p.): 78 days | T/C ([3]; 25 mg./kg. i.p.): 175% | % Inhibition Tumor Growth ([3]; 50 mg./kg. i.p.): 78% | % Showing 50% Tumor Regression ([3]; 50 mg./kg. i.p.): 25% | No. Without Tumors/No. Survivors ([3]; 50 mg./kg. i.p.): 2/6 | Tumor ([3]; 50 mg./kg. i.p.): 263 (mm.) 2 | Median Survival ([3]; 50 mg./kg. i.p.): 92.5 days | T/C ([3]; 50 mg./kg. i.p.): 208% | % Inhibition Tumor Growth ([3]; 100 mg./kg. i.p.): 96% | % Showing 50% Tumor Regression ([3]; 100 mg./kg. i.p.): 28% | No. Without Tumors/No. Survivors ([3]; 100 mg./kg. i.p.): 2/5 | Tumor ([3]; 100 mg./kg. i.p.): 52 (mm.) 2 | Median Survival ([3]; 100 mg./kg. i.p.): 48 days | T/C ([3]; 100 mg./kg. i.p.): 108% | Median Survival Time ([4]; 3 mg./kg. i.p., days 1 through 9): 25.5 days | Median Survival Time ([4]; 6 mg./kg. i.p., days 1 through 9): 27.0 days | Median Survival Time ([4]; 12 mg./kg. i.p., days 1 through 9): 28.5 days | Median Survival Time ([4]; 25 mg./kg. i.p., days 1 through 9): 24.5 days | response vs control in vivo at 3 mg/kg ([4]; Mus musculus, ip, read-out: T/C × 100): 142% | response vs control in vivo at 6 mg/kg ([4]; Mus musculus, ip, 6 mg./kg. i.p., days 1 through 9, efficacy ≥125%, read-out: T/C × 100): 150% | response vs control in vivo at 12 mg/kg ([4]; Mus musculus, ip, 12 mg./kg. i.p., days 1 through 9, efficacy ≥125%, read-out: T/C × 100): 158% | response vs control in vivo at 25 mg/kg ([4]; Mus musculus, ip, 25 mg./kg. i.p., days 1 through 9, efficacy ≥125%, read-out: T/C × 100): 136%

storage behaviour of solid ([5]; stored at 25° C.): coalesces into a solid cake | storage behaviour of solid ([5]; stored at -25° C.): remains granular
Structure (SMILES): O=C1C2=C(NCCNCCNCCO)CCC(NCCNCCNCCO)=C2C(=O)c2c(O)ccc(O)c21 [Example 33, Leuco-1,4-bis[2-[2-(2-hydroxyethylamino)ethylamino]ethylamino]-5,8-dihydroxyanthraquinone]
